Where two headings read alike, the source gives them in different places.
Key:
[1] = test system: Hh/SMO pathway; experiment: Gli-Luciferase functional assay, NIH 3T3 Gli-RE cells stimulated with ShhN; type: cell-based; conditions: for Inhibition of ShhN-induced Hh signaling (in words): NIH 3T3 Gli-RE cells, ShhN stimulated; for Span of concentration response curve: data as percent of the maximum luminescence in the absence of antagonists, Fig 4
Protocol: After 24 hours, when the cells reached confluency, the culture medium was replaced with 80 μL per well of assay medium [Optimem ± 10 mM HEPES ± 1 mM Sodium Pyruvate + 1× MEM NEAA]. […] Then the cells were stimulated by addition of either ShhN-conditioned media or control media (DMEM±10%BCS) at a final concentration of 10%. Following incubation of the plate for at least 28 hours at 37°C, the cells were simultaneously lysed and supplemented with a luciferase substrate by addition of equal volume of Steady-Glo reagent (Promega, E2520) directly to the assay media. Plates were mixed by pipetting, centrifuged to eliminate foam, incubated for 10 minutes, and analyzed using Perkin Elmer Viktor X luminescence plate reader. The results were analyzed using a non-linear regression (Prism 6, GraphPad Software, La Jolla, CA). Data were normalized to the maximal response observed for ShhN-stimulated cells in the same experiment. A sigmoidal-dose response curve was used as a model for data analysis and IC50 value calculation.

[2] = molecular target: T1, mSMO (Mus musculus, UniProt P56726); experiment: BODIPY-Cyclopamine competition binding assay, flow cytometry, HEK293T cells transiently transfected with mSMO; conditions: BODIPY-Cyclopamine 5 nM
T1 construct: host or cells: HEK293T
T1 sequence (P56726 33-793): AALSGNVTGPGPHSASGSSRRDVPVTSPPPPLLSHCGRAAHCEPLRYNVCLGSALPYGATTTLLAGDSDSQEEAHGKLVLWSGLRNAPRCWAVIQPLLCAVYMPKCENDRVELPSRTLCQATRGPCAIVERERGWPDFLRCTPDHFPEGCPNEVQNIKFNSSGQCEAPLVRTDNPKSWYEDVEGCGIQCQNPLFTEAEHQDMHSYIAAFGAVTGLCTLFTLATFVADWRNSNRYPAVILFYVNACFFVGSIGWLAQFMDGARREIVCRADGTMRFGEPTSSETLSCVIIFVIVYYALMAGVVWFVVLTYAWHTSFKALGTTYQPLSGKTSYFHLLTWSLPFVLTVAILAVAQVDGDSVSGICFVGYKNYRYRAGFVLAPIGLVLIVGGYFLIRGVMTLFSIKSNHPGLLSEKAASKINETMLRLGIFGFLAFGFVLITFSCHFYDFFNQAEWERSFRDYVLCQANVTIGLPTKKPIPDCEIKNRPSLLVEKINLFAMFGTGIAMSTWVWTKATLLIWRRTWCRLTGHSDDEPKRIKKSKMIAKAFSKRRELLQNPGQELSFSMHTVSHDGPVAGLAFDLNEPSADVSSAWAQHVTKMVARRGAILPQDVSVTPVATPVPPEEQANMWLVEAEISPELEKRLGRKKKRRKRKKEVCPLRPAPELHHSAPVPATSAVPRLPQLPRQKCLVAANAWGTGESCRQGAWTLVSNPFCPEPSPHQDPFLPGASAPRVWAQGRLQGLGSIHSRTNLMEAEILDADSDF
Protocol: Prior to transfection, cell culture media was replaced with DMEM + 10%FBS for mSMO transfection and with DMEM + 10%BCS for ShhN transfection. The transfected dish was incubated for approximately 24 hours at 37°C. For the production of ShhN conditioned medium, the culture medium from ShhN-transfected HEK293T cells was collected, aliquoted in single use 1.5 mL Eppendorf tubes and either used fresh or stored at -20°C.
HEK293T cells transiently transfected with mSMO were lifted with trypsin (0.25%) and replated at 6×10^4 cells in 80 μL DMEM + 10%FBS per well in a 96 well tissue-culture treated plate (Falcon, 353219). The plate was incubated at 37°C for 24 hours. Serial dilutions of test compounds (10x final concentrations) were prepared in culture media. 10 μL of diluted compounds or control media were added to the plate after which the plate was incubated at 37°C for 10 min. […] Following at least 1.5 hours incubation at 37°C in 5% CO2, cells were lifted by vigorous pipetting, transferred to conical bottom 96-well plates, and centrifuged at 400 × g for 5 min at 4°C. Supernatant was discarded, cells were re-suspended in 300 μL of PBS + 0.5% BSA (freshly prepared), and the plate was analyzed with Guava benchtop flow cytometer. The results were interpreted with FlowJo software (version v10.1). Dose response curves were constructed in Prism 6 (GraphPad Software, La Jolla, CA).

[3] = test system: MB-PDX cells; experiment: Neurosphere formation assay; type: cell-based, human; conditions: MB-PDX, 10 μM, at least 7 days, 1–2 cells per well
Protocol: (§2) The final concentration of test compounds in the wells was 10 μM. Cells were incubated at 37 °C for at least seven days. After incubation percent of wells positive with neural stem cell-derived sphere colonies were calculated for each test condition and compared.

[4] = test system: DAOY cells; experiment: Neurosphere formation assay; type: cell-based, human; conditions: DAOY, 10 μM, at least 7 days, 1–2 cells per well
Protocol: as §2

[5] = test system: nuclear Gli-1 in DAOY cells; experiment: Western blot quantitation of nuclear Gli-1; type: cell-based, human; conditions: NS conditions, 24-hour treatment, 5 μM (Fig 6f, S4 Fig)
Protocol: (§1) Nuclear fractions were prepared from cell pellets according to the method of Schreiber et. al.[81] with minor modifications. […] After 24 hours, cells were lifted from the wells by pipetting, transferred to 1.5 mL Eppendorf tubes, centrifuged at 10,000 x g for 1 minutes at 4°C, and washed once in PBS. Following supernatant removal by vacuum, cells were lysed using a plasma membrane lysis buffer [10 mM HEPES; pH 7.5, 10 mM KCl, 0.1 mM EDTA, 1 mM dithiothreitol (DTT), 0.5% Nonidet P‐40 and 0.5 mM PMSF along with 1× protease inhibitor cocktail (Sigma)] and allowed to swell on ice for 15‐20 min with intermittent mixing. Next, tubes were vortexed to disrupt cell membranes and then centrifuged at 12,000 × g at 4°C for 10 min. […] The pelleted nuclei were washed with the plasma membrane lysis buffer and re-suspended in the nuclear extraction buffer [20 mM HEPES (pH 7.5), 400 mM NaCl, 1 mM EDTA, 1 mM DTT, 1 mM PMSF with 1× protease inhibitor cocktail] and incubated on ice for 30 min. The tubes were centrifuged at 12,000 ×g for 25 min at 4°C and the supernatant (now containing the soluble fraction of the cell nuclei) was collected. Total protein concentrations were determined using the Bio-Rad Protein Assay (Bio-Rad, Hercules, CA). Nuclear extracts containing the total of 40 μg protein were separated on a 10% Tris-SDS PAGE gel (Bio-Rad Mini-PROTEAN® TGX). Gels were transferred on nitrocellulose membranes using Bio-Rad TransBlot system, after which the membranes were blocked in the blocking buffer [5% nonfat dry milk in 1× Tris Buffer Saline + 0.1% Tween 20 (TBST)] for 2 hours at room temperature. Following blocking, the membranes were washed four times with TBST (5 minutes gentle rocking per wash) and incubated overnight with primary antibody Rabbit anti-Gli-1 (Cell signaling, #C68H3); 1:250 dilution in TBST-Milk at 4°C with gentle rocking. Membranes were washed three times with TBST for 5 min each.

[6] = test system: nuclear Gli-1 in MB-PDX cells; experiment: Western blot quantitation of nuclear Gli-1; type: cell-based, human; conditions: NS conditions, 24-hour treatment, 5 μM (Fig 6f, S4 Fig)
Protocol: as §1

[7] = test system: firefly luciferase under control of cAMP response element (CRE); experiment: CRE-luciferase counter assay in HEK293s cells; type: cell-based; conditions: different concentrations
Protocol: (a) The drugs were tested at different concentrations in HEK293s cells stably transfected with firefly luciferase under control of cAMP response element (CRE) (pGL4.29[luc2P/CRE/Hygro], Promega). […] Raw, non-normalized luminescence values are presented, to facilitate the assessment of the extent of inhibition. Shown is a single representative experiment out of the multiple experiments performed on different days. (Mean ± SD)

[8] = test system: MB-PDX cells; experiment: cells; conditions: Homo sapiens, 72 h, read-out: Cell viability assay IC50
[9] = molecular target: T2, SMO (Mus musculus, UniProt P56726); conditions: literature value, cited from earlier work; for IC50: read-out: Gli-RE-luciferase assay IC50
T2 construct: host or cells: NIH 3T3 Gli-RE
T2 sequence (P56726 33-793): as above

[10] = molecular target: T2, SMO; experiment: Competitive functional inhibition assay against SAG, Gli-Luciferase, NIH 3T3 Gli-RE cells; type: cell-based; conditions: read-out: EC50 of SAG (printed as IC50 in Fig 5c); SAG alone
Protocol: After 24 hours, when the cells reached confluency, the culture medium was replaced with 80 μL per well of assay medium [Optimem ± 10 mM HEPES ± 1 mM Sodium Pyruvate + 1× MEM NEAA]. […] Following incubation of the plate for at least 28 hours at 37°C, the cells were simultaneously lysed and supplemented with a luciferase substrate by addition of equal volume of Steady-Glo reagent (Promega, E2520) directly to the assay media. Plates were mixed by pipetting, centrifuged to eliminate foam, incubated for 10 minutes, and analyzed using Perkin Elmer Viktor X luminescence plate reader. The results were analyzed using a non-linear regression (Prism 6, GraphPad Software, La Jolla, CA). Data were normalized to the maximal response observed for ShhN-stimulated cells in the same experiment. A sigmoidal-dose response curve was used as a model for data analysis and IC50 value calculation.

[11] = test system: MB-PDX and DAOY cells; experiment: alamarBlue cell viability assay, adherent versus NS conditions; type: cell-based, human
Protocol: The results were analyzed using a non-linear regression (Prism 6, GraphPad Software, La Jolla, CA).

[12] = test system: DAOY cells; experiment: cells; conditions: Homo sapiens, 72 h, read-out: Cell viability assay IC50
[13] = test system: MB-PDX and DAOY cells; experiment: Cell viability with and without Vismodegib (0.5 uM), alamar blue; type: cell-based, human; conditions: with 0.5 μM Vismodegib, 72 hours
Protocol: S6 Figure: Cell viability in Medulloblastoma Cells (MB-PDX and DAOY) [n=3]. […] The cell viability was measured after 72 hours of treatment using alamar blue. (Mean ± SD)

[14] = test system: Mast/stem cell growth factor receptor Kit (KIT_HUMAN); parameters: method as in earlier work; conditions: S2/S3 Table; ref [1] Davis MI et al., Nat Biotechnol. 2011; cited from earlier work
[15] = test system: Platelet-derived growth factor receptor beta (PGFRB_HUMAN); parameters: method as in earlier work; conditions: S2/S3 Table; ref [1] Davis MI et al., Nat Biotechnol. 2011; cited from earlier work
[16] = test system: Platelet-derived growth factor receptor alpha (PGFRA_HUMAN); parameters: method as in earlier work; conditions: S2/S3 Table; ref [1] Davis MI et al., Nat Biotechnol. 2011; cited from earlier work
[17] = Mus musculus, NIH3T3, NIH3T3 Gli-RE cells, ShhN-conditioned media, n = 3, read-out: Hh/SMO pathway inhibition IC50
[18] = NIH3T3 Gli-RE cells, ShhN-conditioned media, n = 3, read-out: Hh/SMO pathway inhibition IC50

O=C1CCC(N2C(=O)c3ccccc3C2=O)C(=O)N1 (centres unmarked) [Thalidomide]
Inhibition of ShhN-induced Hh signaling (in words) [1]: inactive
Span of concentration response curve [1]: -12.85
Displacement of BODIPY-Cyclopamine from SMO (in words) [2]: no effect

CS(=O)(=O)c1ccc(C(=O)Nc2ccc(Cl)c(-c3ccccn3)c2)c(Cl)c1 [Vismodegib]
IC50 [1, 17]: 4.08 nM
IC50 [1, 18]: 4 nM
Inhibition of NS formation, wells [3]: ineffective
Inhibition of NS formation, wells [4]: ineffective
Nuclear Gli-1, mean, % of untreated samples [5]: 75%
Nuclear Gli-1, mean, % of untreated samples [6]: 67%
Effect on CRE-driven luciferase activity (independent of SMO) [7]: lack of dose-dependent effect
IC50 [8]: 52000 nM

Cc1csc(CN[C@@H]2Cc3ccc(NC(=O)c4cccc(C)c4-c4ccc(C(F)(F)F)cc4)cc3C2)n1 [23b_ NV, 3-methyl-N-[(2R)-2-[(4-methyl-1,3-thiazol-2-yl)methylamino]-2,3-dihydro-1H-inden-5-yl]-2-[4-(trifluoromethyl)phenyl]benzamide]
IC50 [9]: 17 nM

CS(=O)(=O)Nc1ccc([N+](=O)[O-])cc1Oc1ccccc1 [Nimesulide]
Inhibition of ShhN-induced Hh signaling (in words) [1]: inactive
Span of concentration response curve [1]: -3.874
Displacement of BODIPY-Cyclopamine from SMO (in words) [2]: no effect

CC1=C2C[C@H]3[C@@H](CC=C4C[C@@H](O)CC[C@@]43C)[C@@H]2CC[C@]12O[C@@H]1C[C@H](C)CN[C@H]1[C@H]2C [Cyclopamine]
IC50 ([1]; Mus musculus, NIH3T3, read-out: Hh/SMO pathway inhibition IC50, NIH3T3 Gli-RE cells, ShhN-conditioned media, n = 3): 189 nM
Span of concentration response curve [1]: 105.7
IC50 ([1]; read-out: Hh/SMO pathway inhibition IC50, NIH3T3 Gli-RE cells, ShhN-conditioned media, n = 3): 189 nM

CC1=C2C[C@H]3[C@@H](CC[C@@H]4C[C@H](NS(C)(=O)=O)CC[C@@]43C)[C@@H]2CC[C@@]2(C1)O[C@@H]1C[C@H](C)CN[C@H]1[C@H]2C [Saridegib]
IC50 [9]: 9 nM

CNC1CCC(N(Cc2cccc(-c3ccncc3)c2)C(=O)c2sc3ccccc3c2Cl)CC1 (centres unmarked) [SAG]
EC50 [10]: 79 nM
EC50 ([9]; read-out: Gli-RE-luciferase assay EC50 (for SAG the value is EC50 not IC50), agonist): 3 nM

C#Cc1cccc(Nc2ncnc3cc(OCCOC)c(OCCOC)cc23)c1 [Erlotinib]
Effect on cell viability (in words) [11]: did not affect cell viability under any condition
Inhibition of NS formation, wells [3]: ineffective
Inhibition of NS formation, wells [4]: ineffective
IC50 [12]: 11000 nM

C[C@@]12CN(C(=O)Nc3ccnn3-c3ccccc3)CCN1C(=O)N([C@H]1C[C@@H]1c1ccccc1)C2=O [MK_5710, (8aS)-8a-methyl-1,3-dioxo-2-[(1S,2R)-2-phenylcyclopropyl]-N-(1-phenyl-1H-pyrazol-5-yl)hexahydroimid azo[1,5-a]pyrazine-7(1H)-carboxamide]
IC50 [9]: 17 nM

CN(C(=O)c1ccc(F)cc1C(F)(F)F)C1CCN(c2nnc(-c3ccnn3C)c3ccccc23)CC1 [Taladegib (LY2940680), Taladegib]
IC50 [9]: 2.6 nM

Cc1nn(-c2ccccc2)c(C)c1/C=N/N1CCN(Cc2ccccc2)CC1 [SANT-1]
IC50 [9]: 20 nM

Cc1ccc(NC(=O)c2ccc(CN3CCN(C)CC3)cc2)cc1Nc1nccc(-c2cccnc2)n1 [Imatinib]
Inhibition of ShhN-induced Hh signaling (in words) [1]: inhibited ShhN-induced Hh signaling in a dose-dependent manner
Inhibition of NS formation, wells [3]: less potent
Inhibition of NS formation, wells [4]: less potent
Effect on CRE-driven luciferase activity (independent of SMO) [7]: lack of dose-dependent effect
Change of efficacy in cell viability assay in the presence of Vismodegib [13]: improvement in efficacy
Kd/Ki Value [14]: 13 nM
Kd/Ki Value [15]: 14 nM
Kd/Ki Value [16]: 31 nM

Cc1c(C(=O)Nc2ccc(N3C[C@@H](C)O[C@@H](C)C3)nc2)cccc1-c1ccc(OC(F)(F)F)cc1 [Sonidegib (NVP-LDE225), Sonidegib]
IC50 [9]: 2.5 nM

COC(=O)Nc1nc2ccc(C(=O)c3ccccc3)cc2[nH]1 [Mebendazole]
IC50 [1, 17]: 327 nM
Inhibition of ShhN-induced Hh signaling (in words) [1]: inhibited ShhN-induced Hh signaling in a dose-dependent manner
IC50 [1, 18]: 328 nM
Span of concentration response curve [1]: 108.1
Displacement of BODIPY-Cyclopamine from SMO (in words) [2]: no effect

CCC(C)n1ncn(-c2ccc(N3CCN(c4ccc(OCC5COC(Cn6cncn6)(c6ccc(Cl)cc6Cl)O5)cc4)CC3)cc2)c1=O (centres unmarked) [Itraconazole]
IC50 [9]: 800 nM

CNCc1ccc(C)c(NC(=O)c2ccc(Nc3nc(-c4ccccc4)c4ccccc4n3)cc2)c1 [BMS_833923]
IC50 [9]: 6 to 35 nM

Reference: publication PMC6754133 (PLoS ONE, 2019)
